Test results taken from patent publication US9777106B2, “Bisphenol polymer precursor replacements” (CASE WESTERN RESERVE UNIVERSITY, priority 2013, dated 2017).

Experiments:
[1] = test system: mouse embryonic stem cells; experiment: Cytotoxicity and apoptosis assay (annexin-V / 7-AAD) in mouse embryonic stem cells; type: cell-based; settings: incubated with mouse embryonic stem cells; FIG. 1
From the text: Bisphenols have come under increasing scrutiny due to their capacity to mimic estrogen in biological systems, resulting in numerous health complications. Specifically these effects have been observed in endothelial cell differentiation. Bredhult et al., “Gene expression analysis of human endometrial endothelial cells exposed to Bisphenol A,” Reproductive toxicology (Elmsford, N.Y 28, 18-25 (2009). Long et al., Experimental biology and medicine, 226, 477-483 (2001). Accordingly, experiments have been carried out to evaluate the cytotoxicity and differentiation effect of a biologically derived bisphenol polymer precursor replacement. Resveratrol and bisphenol A were incubated with mouse embryonic stem cells and evaluated for cytotoxicity and apoptosis. Cells were then differentiated and evaluated for effect on endothelial differentiation. […]
The procedure for testing toxicity was and can be carried out as follows. […] 100,000 E14 cells were added to a 10 cm plate, covered with 1, 10 and 100 mg of polymer sample, and incubated for 48 hours followed by application of the MTT dye solutions and measurement of absorbance at 570 nm.
The number of apoptotic cells are quantified using an annexin-V apoptosis staining kit with 7-Amino-actinomycin D (7-AAD) vital stain (AnnexinV—PE Apoptosis Detection Kit; BD Biosciences Pharmingen, San Diego, Calif.). […]

[2] = test system: mouse embryonic stem cell line (endothelial differentiation reporter); experiment: Endothelial differentiation assay in reporter mouse embryonic stem cell line (green fluorescent protein readout); type: cell-based; settings: FIG. 1; for effect on estrogen receptor function: reporter cell line; for effect on cell (endothelial) differentiation: reporter mouse embryonic stem cell line, cells differentiated after incubation
From the text: Bisphenols have come under increasing scrutiny due to their capacity to mimic estrogen in biological systems, resulting in numerous health complications. Specifically these effects have been observed in endothelial cell differentiation. Bredhult et al., “Gene expression analysis of human endometrial endothelial cells exposed to Bisphenol A,” Reproductive toxicology (Elmsford, N.Y 28, 18-25 (2009). Long et al., Experimental biology and medicine, 226, 477-483 (2001). Accordingly, experiments have been carried out to evaluate the cytotoxicity and differentiation effect of a biologically derived bisphenol polymer precursor replacement. Resveratrol and bisphenol A were incubated with mouse embryonic stem cells and evaluated for cytotoxicity and apoptosis. Cells were then differentiated and evaluated for effect on endothelial differentiation. […] Further studies are planned to test further stages of resveratrol epoxidization. The inventor's lab has developed a mouse embryonic stem cell line capable of providing a quantitative readout of endothelial differentiation due to expression of a green fluorescent protein. Using these and similar cell lines we have been able to assay the effect of new molecules on cell proliferation, death, apoptosis, and endothelial differentiation. Robilotto et al., Dalton Transactions, 40(32): 8083-5 (2011). This cell line will be used to determine the biological effect of the newly proposed polymers as compared to the effect of benchmark controls. Protocols similar to those previously published can be used to determine the biocompatibility of the new polymers as compared to that of benchmark resin, evaluating the capacity of mouse embryonic stem cells to proliferate, their rate of cell death by toxicity or apoptosis, and their capacity to differentiate into […]. Kim et al., Tissue engineering, 15, 3709-3718 (2009); Kim et al., Tissue engineering, 16, 1065-1074 (2010).

Compound	over toxicity using the apoptosis assay [1]	effect on estrogen receptor function [2]	effect on estrogen receptor function ([2]; listed as BPA)	effect on cell (endothelial) differentiation [2]	effect on cell (endothelial) differentiation ([2]; listed as BPA)
CC(C)(c1ccc(O)cc1)c1ccc(O)cc1 [bisphenol A]	relatively indistinguishable	clearly interferes with estrogen receptor function	interferes estrogen receptor function	negatively effects cell differentiation	negatively impacts cell differentiation
Oc1ccc(C=Cc2cc(O)cc(O)c2)cc1 [Resveratrol, resveratrol]	relatively indistinguishable	little to no impact on estrogen receptor function	–	comparable to negative controls	–
